# Structures can show the parent of a compound that is named as a salt. Where two headings read alike, the source gives them in different places.
# How the values were obtained:
# [1] = molecular target: menin/MLL (terbium chelate-labeled menin, FITC-MBM1 peptide) (Homo sapiens (Human), UniProt O00255); assay: Menin/MLL homogenous time-resolved fluorescence (HTRF) assay; format: binding;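 further: IC50 from percent inhibition of HTRF signal, normalized between wells without competitor and wells with a saturating competitor that displaces FITC-MBM1 from His-tagged menin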
# MOLM14 cells = assay: Proliferation assay (spheroid growth, 8 days), MOLM14; format: cell-based, human; conditions: MOLM14, 8 days, read-out: spheroid assay_OneTime MOLM14 IC50;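 further: spheroid size read as confluence by live-cell imaging, compounds added at a range of concentrations with 0.3% DMSO, DMSO-treated wells = 0%, highest reference dose = low control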
# OCI-AML3 cells = assay: Proliferation assay (spheroid growth, 8 days), OCI-AML3; format: cell-based, human; conditions: OCI-AML3, 8 days
# Method: (§1) The anti-proliferative effect of menin/MLL protein/protein interaction inhibitor test compounds was assessed in human leukemia cell lines. The cell line MOLM14 harbors a MLL translocation and expresses the MLL fusion protein MLL-AF9, respectively, as well as the wildtype protein from the second allele. OCI-AML3 cells that carry the NPM1c gene mutation were also tested. […] KO-52 was used as a control cell line containing two MLL (KMT2A) wildtype alleles in order to exclude compounds that display general cytotoxic effects.
# (§2) KO-52 and OCI-AML3 cell lines were propagated in alpha-MEM (Sigma Aldrich) supplemented with 20% heat-inactivated fetal bovine serum (HyClone), 2 mM L-glutamine (Sigma Aldrich) and 50 μg/ml gentamycin (Gibco).
# (§3) In order to assess the anti-proliferative effects, 200 MOLM14 cells, 200 OCI-AML3 cells or 300 KO-52 cells were seeded in 200 μl media per well in […] round bottom, ultra-low attachment plates (Costar, catalogue number 7007). Cell seeding numbers were chosen based on growth curves to ensure linear growth throughout the experiment. Test compounds were added at different concentrations and the DMSO content was normalized to 0.3%. Cells were incubated for 8 days at 37° C. and 5% CO2. Spheroid like growth was measured in real-time by live-cell imaging (IncuCyteZOOM, Essenbio, 4× objective) acquiring images at day 8. Confluence (%) as a measure of spheroid size was determined using an integrated analysis tool.
# (§4) In order to determine the effect of the test compounds over time, the confluence in each well as a measure of spheroid size, was calculated. Confluence of the highest dose of a reference compound was used as baseline for the LC (Low control) and the confluence of DMSO treated cells was used as 0% cytotoxicity (High Control, HC).
# (§5) GraphPad Prism(version 7.00) was used to calculate the IC50. Dose-response equation was used for the plot of % Effect vs Log 10 compound concentration with a variable slope and fixing the maximum to 100% and the minimum to 0%.
# KO-52 cells = assay: Proliferation assay (spheroid growth, 8 days), KO-52 control cell line; format: cell-based, human; conditions: read-out: spheroid assay_OneTime KO-52 IC50
# Method: as §1, §2, §3, §4, §5
# MEIS1 mRNA = MEIS1 mRNA expression assay (Quantigene Singleplex) in MOLM14 cells; format: cell-based, human; conditions: 48 hours incubation;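 further: MEIS1 transcript levels read by probe hybridization and normalized to RPL28 mRNA, with IC50 fitted to fold changes across a rising compound concentration series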
# [2] = HTRF-30 min incubation IC50, 30 min incubation
# [3] = read-out: HTRF-30 min incubation IC50, 30 min incubation
# menin/MLL (terbium chelate-labeled menin, FITC-MBM1 peptide), sequence (O00255 other isoform, or with tags, fused parts or gaps): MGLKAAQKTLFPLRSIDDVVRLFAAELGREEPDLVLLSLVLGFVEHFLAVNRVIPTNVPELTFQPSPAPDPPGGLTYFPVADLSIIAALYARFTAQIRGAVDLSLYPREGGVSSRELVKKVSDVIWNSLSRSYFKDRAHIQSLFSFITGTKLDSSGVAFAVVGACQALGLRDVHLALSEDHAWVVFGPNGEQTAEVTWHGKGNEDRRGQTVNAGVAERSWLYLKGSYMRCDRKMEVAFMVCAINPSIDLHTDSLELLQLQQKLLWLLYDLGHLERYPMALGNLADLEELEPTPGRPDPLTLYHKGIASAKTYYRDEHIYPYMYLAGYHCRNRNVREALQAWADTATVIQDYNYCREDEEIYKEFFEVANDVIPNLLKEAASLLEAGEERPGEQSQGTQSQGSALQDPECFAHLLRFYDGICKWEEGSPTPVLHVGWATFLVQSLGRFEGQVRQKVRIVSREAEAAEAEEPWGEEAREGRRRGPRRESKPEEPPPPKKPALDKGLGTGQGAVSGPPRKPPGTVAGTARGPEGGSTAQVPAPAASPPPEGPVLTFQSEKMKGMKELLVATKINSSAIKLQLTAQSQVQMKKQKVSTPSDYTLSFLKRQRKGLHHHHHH
SMILES,"IC50 [1, 2] [nM]","IC50 (MOLM14 cells; Homo sapiens, MOLM-14, […]) [nM]","IC50 (OCI-AML3 cells; Homo sapiens, OCI-AML-3, […]) [nM]","IC50 (KO-52 cells; Homo sapiens, […]) [nM]","IC50 (MEIS1 mRNA; Homo sapiens, MOLM-14, 48 h) [nM]","IC50 [1, 3] [nM]",IC50 (MOLM14 cells) [nM],IC50 (OCI-AML3 cells) [nM],IC50 (KO-52 cells) [nM],IC50 (MEIS1 mRNA) [nM]
"CCN(C(=O)c1cc(F)ccc1Oc1nncnc1N1CCC2(C1)CN([C@H](CN)C(C)C)C2)C(C)C (single isomer, unassigned) [Compound 24, (*S)-2-((5-(2-(1-amino-3-methylbutan-2-yl)-2,6-diazaspiro[3.4]octan-6-yl)-1,2,4-triazin-6-yl)oxy)-N-ethyl-5-fluoro-N-isopropylbenzamide]",0.97,690,2680,> 15000,~840,–,–,–,–,–
"CC(C)[C@@H](CCC(N)=O)N1CC2(CCN(c3ncnnc3Oc3ccc(F)cc3-c3cncnc3C3CC3)C2)C1 (single isomer, unassigned) [Compound 43, (*R)-4-(6-(6-(2-(4-cyclopropylpyrimidin-5-yl)-4-fluorophenoxy)-1,2,4-triazin-5-yl)-2,6-diazaspiro[3.4]octan-2-yl)-5-methylhexanamido]",0.55,290,1200,> 15000,~240,–,–,–,–,–
"CCN(C(=O)c1cc(F)ccc1Oc1nnccc1N1CCC2(C1)CN([C@H](CCCN(C)C)C(C)C)C2)C(C)C (single isomer, unassigned) [Compound 77, (*R)-2-((4-(2-(6-(dimethylamino)-2-methylhexan-3-yl)-2,6-diazaspiro[3.4]octan-6-yl)pyridazin-3-yl)oxy)-N-ethyl-5-fluoro-N-isopropylbenzamide]",–,–,–,–,–,0.51,100,1320,13700,120
"CCN(C(=O)c1cc(F)ccc1Oc1nnccc1N1CCC2(C1)CN([C@@H](CCCN(C)C)C(C)C)C2)C(C)C (single isomer, unassigned) [Compound 78, (*S)-2-((4-(2-(6-(dimethylamino)-2-methylhexan-3-yl)-2,6-diazaspiro[3.4]octan-6-yl)pyridazin-3-yl)oxy)-N-ethyl-5-fluoro-N-isopropylbenzamide]",–,–,–,–,–,3.69,> 940,12200,> 15000,> 1000
"CCN(C(=O)c1cc(F)ccc1Oc1nnccc1N1CCC2(C1)CN([C@@H](CCCN(C)CCOC)C(C)C)C2)C(C)C (single isomer, unassigned) [Compound 84, (*S)—N-ethyl-5-fluoro-N-isopropyl-2-((4-(2-(6-((2-methoxyethyl)(methyl)amino)-2-methylhexan-3-yl)-2,6-diazaspiro[3.4]octan-6-yl)pyridazin-3-yl)oxy)benzamide oxalate]",–,> 940,7170,> 15000,> 1000,–,–,–,–,–
"COCCN(C)CCC[C@H](C(C)C)N1CC2(CCN(c3ccnnc3Oc3ccc(F)cc3C(=O)N(C(C)C)C(C)C)C2)C1 (single isomer, unassigned) [Compound 88, (*R)-5-fluoro-N,N-isopropyl-2-((4-(2-(6-((2-methoxyethyl)(methyl)amino)-methylhexan-3-yl)-2,6-diazaspiro[3.4]octan-6-yl)pyridazin-3-yl)oxy)benzamide oxalate]",0.083,120,810,14000,130,–,–,–,–,–
"COCCN(C)CCC[C@@H](C(C)C)N1CC2(CCN(c3ncnnc3Oc3ccc(F)cc3C(=O)N(C(C)C)C(C)C)C2)C1 (single isomer, unassigned) [Compound 95, (*S)-5-fluoro-N,N-isopropyl-2-((5-(2-(6-((2-methoxyethyl)(methyl)amino)-methylhexan-3-yl)-2,6-diazaspiro[3.4]octan-6-yl)-1,2,4-triazin-6-yl)oxy)benzamide oxalate]",4.98,390,1620,> 15000,~620,–,–,–,–,–
"CC(C)[C@H](CCCN(C)C)N1CC2(CCN(c3ncnnc3Oc3ccc(F)cc3C(=O)N(C(C)C)C(C)C)C2)C1 (single isomer, unassigned) [Compound 103, (*S)-2-((5-(2-(6-(dimethylamino)-2-methylhexan-3-yl)-2,6-diazaspiro[3.4]octan-6-yl)-1,2,4-triazin-6-yl)oxy)-5-fluoro-N,N-diisopropylbenzamide fumarate]",2.43,290,1360,> 15000,420,–,–,–,–,–
"CCN(C(=O)c1cc(F)ccc1Oc1nncnc1N1CCC2(C1)CN([C@H](CCCN(C)C(C)C)C(C)C)C2)C(C)C (single isomer, unassigned) [Compound 122, (*R)—N-ethyl-5-fluoro-N-isopropyl-2-((5-(2-(6-(isopropyl(methyl)amino)-2-methylhexan-3-yl)-2,6-diazaspiro[3.4]octan-6-yl)-1,2,4-triazin-6-yl)oxy)benzamide fumarate]",0.065,21,150,> 15000,34,–,–,–,–,–
"CCN(C(=O)c1cc(F)ccc1Oc1nncnc1N1CCC2(C1)CN([C@@H](CCCN(C)C(C)C)C(C)C)C2)C(C)C (single isomer, unassigned) [Compound 123, (*S)—N-ethyl-5-fluoro-N-isopropyl-2-((5-(2-(6-(isopropyl(methyl)amino)-2-methylhexan-3-yl)-2,6-diazaspiro[3.4]octan-6-yl)-1,2,4-triazin-6-yl)oxy)benzamide fumarate]",3.98,> 940,3550,> 15000,> 1000,–,–,–,–,–
"CCCN(C)CCC[C@H](C(C)C)N1CC2(CCN(c3ncnnc3Oc3ccc(F)cc3C(=O)N(CC)C(C)C)C2)C1 (single isomer, unassigned) [Compound 127, (*R)—N-ethyl-5-fluoro-N-isopropyl-2-((2-methyl-6-(methyl(propyl)amino)hexan-3-yl)-2,6-diazaspiro[3.4]octan-6-yl)-1,2,4-triazin-6-yl)oxy)benzamide fumarate]",0.089,26,140,11300,44,–,–,–,–,–
"CCN(C(=O)c1cc(F)ccc1Oc1nncnc1N1CCC2(C1)CN([C@H](CCCN(C)CC(C)OC)C(C)C)C2)C(C)C (single isomer, unassigned) [Compound 254, oxalate]",4.16,590,4690,> 15000,–,–,–,–,–,–
"CCN(C(=O)c1cc(F)ccc1Oc1nncnc1N1CCC2(C1)CN([C@H](CCCN(C)CCOC)C(C)C)C2)C(C)C [Compound 27, (R)-N-ethyl-5-fluoro-N-isopropyl-2-((5-(2-(6-((2-methoxyethyl)(methyl)amino)-2-methylhexan-3-yl)-2,6-diazaspiro[3.4]octan-6-yl)-1,2,4-triazin-6-yl)oxy)benzamide]",–,–,91,6850,–,–,–,–,–,–
"CCN(C(=O)c1cc(F)ccc1Oc1nncnc1N1CCC2(C1)CN([C@@H](CCCN(C)CCOC)C(C)C)C2)C(C)C [Compound 28, (S)—N-ethyl-5-fluoro-N-isopropyl-2-((5-(2-(6-((2-methoxyethyl)(methyl)amino)-2-methylhexan-3-yl)-2,6-diazaspiro[3.4]octan-6-yl)-1,2,4-triazin-6-yl)oxy)benzamide]",–,600,1360,> 15000,–,–,–,–,–,–
"CCN(C(=O)c1cc(F)ccc1Oc1nncnc1N1CCC2(C1)CN([C@H](CCCN(CCOC)CCOC)C(C)C)C2)C(C)C [Compound 90, (R)-2-((5-(2-(6-(bis(2-methoxyethyl)amino)-2-methylhexan-3-yl)-2,6-diazaspiro[3.4]octan-6-yl)-1,2,4-triazin-6-yl)oxy)-N-ethyl-5-fluoro-N-isopropylbenzamide formate]",0.16,40,190,1000,–,–,–,–,–,–
"CCN(C(=O)c1cc(F)ccc1Oc1nnc(Cl)nc1N1CCC2(C1)CN([C@H](CCCN(C)CCOC)C(C)C)C2)C(C)C [Compound 394, (R)-2-((3-chloro-5-(2-(6-((2-methoxyethyl)(methyl)amino)-2-methylhexan-3-yl)-2,6-diazaspiro[3.4]octan-6-yl)-1,2,4-triazin-6-yl)oxy)-N-ethyl-5-fluoro-N-isopropylbenzamide fumarate]",–,110,330,> 15000,–,–,–,–,–,–

# — patent US12473295B2, “Substituted straight chain spiro derivatives” (Janssen Pharmaceutica NV, priority 2019, dated 2025)
